Measurements: patent US20080160509A1, “ASSAYS FOR PREDICTING AND ASSESSING PREDISPOSITION TO MALE PATTERN BALDNESS” (priority 2006, published 2008)

What was measured:
[1] = molecular target: sex hormone binding globulin (SHBG) (Homo sapiens, UniProt P04278); conditions: ratio versus testosterone; cited from earlier work
[2] = system: bald subject (Norwood Level VII); test: Antiviral agent and hair growth study in a bald subject; assay type: in vivo, human
Excerpt: A bald subject (Norwood Level VII) who routinely gets fever blisters volunteered to take place in a study to see if the topical application and oral consumption of antiviral drugs would result in hair growth. The individual lacks any hairs on the top of their head. The participant was instructed to cleanse their scalp twice daily with a liquid cleanser using a sonic skincare brush (Clarisonic®). After cleansing topical acyclovir (5%) was applied. The subject is not a candidate for any of the FDA-approved hair loss medications because of a lack of vellus hairs.
After approximately four weeks of treatment, the participant was given valacyclovir (500 mg) instead of oral acyclovir because of potential acyclovir resistance. In addition, the concentration of topical acyclovir was increased to 10%.
The fact that vellus hair formation occurred and converted to pigmented hairs is highly unexpected in a participant with Norwood Level VII baldness.

Chain of sex hormone binding globulin (SHBG) (P04278 30-402): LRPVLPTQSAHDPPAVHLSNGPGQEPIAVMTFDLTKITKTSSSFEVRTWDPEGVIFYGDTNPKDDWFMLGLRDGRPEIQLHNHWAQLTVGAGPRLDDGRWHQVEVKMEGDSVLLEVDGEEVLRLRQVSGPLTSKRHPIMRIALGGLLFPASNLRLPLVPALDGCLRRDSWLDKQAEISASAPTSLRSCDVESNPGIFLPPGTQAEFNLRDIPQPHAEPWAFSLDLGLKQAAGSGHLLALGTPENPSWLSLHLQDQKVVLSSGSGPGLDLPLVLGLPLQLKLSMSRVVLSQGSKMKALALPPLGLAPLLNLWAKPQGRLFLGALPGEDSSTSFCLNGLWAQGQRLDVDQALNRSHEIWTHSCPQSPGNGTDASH

C[C@]12CCC(=O)C[C@@H]1CC[C@@H]1[C@@H]2CC[C@]2(C)[C@@H](O)CC[C@@H]12 [DHT, 5α-dihydrotestosterone]
binding affinity for SHBG relative to testosterone [1]: at least three times

Nc1nc2c(ncn2COCCO)c(=O)[nH]1 [acyclovir]
conversion of vellus hairs to pigmented hairs ([2]; after 16 weeks of treatment, topical acyclovir 10% plus oral valacyclovir (500 mg)): some of the vellus hairs converted to pigmented hairs | hair lengthening ([2]; after 20 weeks, topical acyclovir 10% plus oral valacyclovir (500 mg)): pigmented and unpigmented vellus hairs continued to lengthen | hair growth on scalp ([2]; at 12 weeks, topical acyclovir increased to 10% plus oral valacyclovir (500 mg) from about week 4): long, unpigmented vellus hairs were visible on the scalp | oral lesions ([2]; human, in vivo): marked increase in oral lesions | hair growth on scalp noted by participant ([2]; topical acyclovir (5%) after twice daily scalp cleansing, after two weeks of treatment, one person, Norwood Level VII): small vellus hairs
